From patent US7968556B2, “Heteroaryl compounds, compositions thereof, and methods of treatment therewith” (Signal Pharmaceuticals, LLC, priority 2006, dated 2011)

Legend:
[1] = target: T1, Tyk2 (Homo sapiens, UniProt P29597); assay: Tyk2 HTRF Assay; assay type: biochemical
T1 construct: 450 ng/ml TYK2 KD (Cama Biosciences 08-147 Lot 06CBS-3022D); purchased Cama Biosciences (so in the source)
T1 sequence (P29597 897-1176 limits assumed): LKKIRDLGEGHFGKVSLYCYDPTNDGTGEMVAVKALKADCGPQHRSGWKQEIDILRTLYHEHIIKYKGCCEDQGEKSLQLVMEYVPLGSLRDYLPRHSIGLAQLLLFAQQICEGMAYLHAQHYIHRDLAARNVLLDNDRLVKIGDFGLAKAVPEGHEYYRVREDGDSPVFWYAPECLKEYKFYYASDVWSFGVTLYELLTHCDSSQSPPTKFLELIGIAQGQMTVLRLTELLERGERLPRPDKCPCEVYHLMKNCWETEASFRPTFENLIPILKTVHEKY
Procedure: The following is an example of an assay that can be used to determine the Tyk2 inhibitory activity of a test compound.
25 μl/well DMSO is added to Columns 2 and 14 (except 28.5 μl is added to well P14 of Greiner 384-well polypropylene plate). 20 μl/well DMSO is added to all remaining wells.
5 mM compound solutions are added by addition of 5 μl of 30 mM compound to 25 μl DMSO in Columns 2 and 14 of plate. 1.5 mM reference control is prepared by addition of 1.5 μl of 30 mM JAK3 Inhibitor VI to 28.5 μl DMSO in Well P14.
Serial dilution is then performed by the following steps: (i) Compounds in Column 2 are mixed by pipetting 20 μl up and down 6X; (ii) 10 μl/well compounds in DMSO are transferred from one column to the next column for Columns 2-11; (iii) wells are mixed by pipetting 20 μl up and down 6×; (iv) tips are washed 3×25 μl DMSO, 2×25 μl next DMSO; (v) steps i-iv repeated for Columns 14-23.
The following buffers are prepared:
Assay Buffer: 50 mM HEPES pH 7.6; 1 mM DTT; 10 mM MgCl2; 0.01% Triton X100; 0.01% BSA; and 0.1 mM EDTA.
Kinase in Assay Buffer: 450 ng/ml TYK2 KD (Cama Biosciences 08-147 Lot 06CBS-3022D).
Substrate/Detection Mixture (1×ATP) in Assay Buffer: 188 nM DyLight 647-Streptavidin (Pierce 21824); 5 μM Biotin-EQEDEPEGDYFEWLE (Lyn Substrate Peptide); 750 ng/ml Eu-anti-phospho-Tyrosine (PerkinElmer AD0069); 62.5 μM ATP; 80 nM Substrate Peptide (American Peptide Company 332722).
Substrate/Detection Mixture (20×ATP) in Assay Buffer: 188 nM DyLight 647-Streptavidin; 5 μM Biotin-EQEDEPEGDYFEWLE; 750 ng/ml Eu-anti-phospho-Tyrosine; 1250 μM ATP; 80 nM Substrate Peptide.
14.5 μl/well Enzyme Mix or Dilution Buffer (Background Controls) is added to Costar 384 well black plates.
Compound addition and mixture is performed by the following steps: (i) 0.5 μl/well DMSO/compounds in DMSO is transferred from Greiner 384-well polypropylene plate to a plate containing 14.5 μl/well Enzyme Mix and Dilution Buffer; (ii) mixed by pipetting 10 μl up and down 4×; (iii) tips are washed 4×10 μl in DMSO, 2×20 μl in other DMSO; (iv) steps i-iii are repeated until all plates are completed.
10 μl/well Substrate/Detection Mixtures is added and incubated at room temperature 2 hours (on shaker for first 2+ minutes).
10 μl/well 50 mM EDTA/0.01% Triton X100 is added and incubated >15 minutes at room temperature (on shaker for first 2+ minutes).
Plates are read at 665 nm and 620 nm emission on Analyst GT protocol HTRF_SP_A (Counts= 665/620×10000).

[2] = target: mTOR (Homo sapiens, UniProt P42345); assay: mTOR HTR-FRET Assay; assay type: biochemical
Procedure: The following is an example of an assay that can be used to determine the mTOR inhibitory activity of a test compound. Reagents are prepared as follows:
“Simple TOR buffer” (used to dilute high glycerol TOR fraction): 10 mM Tris pH 7.4, 10 mM NaCl, 0.1% Tween-20, 1 mM DTT (from 1M stock frozen at −20° C. just prior to use). For convenience a large quantity of “Simple TOR buffer” w/o DTT can be stored at 4° C. It can be brought to room temperature and DTT added just prior to dilution of TOR fraction.
5XKB/5XMn/5×ATP solution (used to dilute substrate GST-p70S6kin 81 a.a. just prior to use) (40 ml screen quantity shown):
Enzyme solution: Dilute TOR fraction 1:14 in “Simple TOR Buffer”. For current lot that is 640 μg/ml TOR fraction diluted 14× to yield 45.7 μg/ml TOR in buffer (i.e. 7.85 ml TOR pooled fraction+102.1 ml Simple TOR buffer=110 ml 14× diluted TOR fraction). Each Enzyme Lot must be QC'd prior to assay.
Substrate solution: This may be prepared just prior to assay if preferred. Dilute 5.3 mg/ml GST-p70S6kinase fragment stock to 3.5 μg/ml (97 nM) working stock in 5XKB/5XMn/5×ATP solution (i.e. 26.41 μL (5.3 mg/ml) GST-p70S6+40 ml 5XKB/5XMn/5×ATP=40 ml 3.5 μg/ml (97 nM)).
Assay Buffer (for dilution of Antibodies used in Antibody Detection Reagent):
Antibody Detection Reagent (this reagent should be made just prior to addition to Assay Plates):
Using PlateTrak program (Screen) or Matrix Pipettor (SAR), 19.5 μL of diluted TOR fraction is added to assay plate in all test, reference or positive control wells. 19.5 μL of “Simple TOR buffer” is added to all negative control wells. If treating multiple plates with the same compounds, can increase volume of enzyme to multiples of 19.5 μL in a tall 384 well polypropylene plate.
Using EP3, 0.5 μl of test, reference or control DMSO is added to each well with mixing. Plates are incubated for 30 minutes at room temperature.
Using PlateTrak program (Screen) or Matrix Pipettor (SAR) 5 μL of 5XKB/5XMn/5×ATP/5× substrate solution is added to each well of the assay plate to start the reaction. The solutions are mixed well and incubated for 2 hours at room temperature.
Using PlateTrak program (Screen) or Matrix Pipettor (SAR) 5 μL of 60 mM EDTA is added to stop the reaction. The solutions are mixed well and allowed to sit for 15-20 minutes before the next step.
Using PlateTrak program (Screen) or Matrix Pipettor (SAR) 10 μl of Antibody Detection Reagent is added. The solutions are mixes well and incubated for 5 hours to O/N to allow antibodies to form complexes with phosphorylated substrate.
Plates are read on AnalystHT using protocol Multi-Method protocol.

[3] = target: T2, IKK-2 (Homo sapiens, UniProt O14920, S177E/S181E); assay: IKK-2 screening assay (IKK2EE 33P Assay / IKK2EE NEMO HTRF Assay); assay type: biochemical
T2 sequence (O14920 1-756 S177E/S181E): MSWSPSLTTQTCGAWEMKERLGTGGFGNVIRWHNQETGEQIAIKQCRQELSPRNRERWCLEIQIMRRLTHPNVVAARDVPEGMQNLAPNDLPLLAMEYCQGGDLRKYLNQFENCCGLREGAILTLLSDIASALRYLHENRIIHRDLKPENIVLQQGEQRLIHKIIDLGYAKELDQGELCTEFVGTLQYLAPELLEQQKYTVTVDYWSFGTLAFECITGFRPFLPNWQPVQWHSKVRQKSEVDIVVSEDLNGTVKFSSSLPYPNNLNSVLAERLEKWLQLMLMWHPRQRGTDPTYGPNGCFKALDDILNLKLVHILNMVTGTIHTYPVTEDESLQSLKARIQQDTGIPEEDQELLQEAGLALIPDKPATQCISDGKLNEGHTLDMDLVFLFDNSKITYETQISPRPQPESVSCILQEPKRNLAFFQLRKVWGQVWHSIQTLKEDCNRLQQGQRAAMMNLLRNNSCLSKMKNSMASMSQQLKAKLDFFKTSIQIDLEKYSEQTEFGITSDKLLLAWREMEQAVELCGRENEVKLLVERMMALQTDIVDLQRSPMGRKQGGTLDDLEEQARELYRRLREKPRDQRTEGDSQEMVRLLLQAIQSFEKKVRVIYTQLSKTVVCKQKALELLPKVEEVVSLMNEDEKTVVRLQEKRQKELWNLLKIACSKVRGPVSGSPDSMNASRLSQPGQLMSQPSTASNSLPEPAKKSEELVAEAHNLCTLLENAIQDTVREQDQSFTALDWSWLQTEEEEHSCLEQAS
Procedure: The following is an example of an assay that can be used to determine the IKK2EE inhibitory activity of a test compound.
A reaction buffer (pH 7.8) is prepared containing HEPES (20 mM), MgCl2 (10 mM), EDTA (0.1 mM), DTT (1 mM) and Triton X-100 (0.004%). IKK2EE (0.75 μg/ml is used. GST-IKBα (50 μg/ml) is used as substrate. Adenosine 5′-triphosphate (1.5 μM with ^33P-ATP 5 nCi/μl) is used. Reactions are stopped with trichloroacetic acid (6.25%).
Appropriate amounts of test compounds or controls in 100% DMSO are added to the assay plate. A peptide-substrate solution (PSS) is prepared by adding peptide stock to an appropriate volume of buffer (peptide concentration in the PSS will be about 100 μg/ml). An enzyme-peptide solution (EPS) is prepared by adding enzyme stock to an appropriate volume of PSS (the enzyme concentration in the EPS will be about 1 μg/ml). An ATP solution is prepared by adding ATP stock to an appropriate volume of buffer (the ATP concentration will be 15 μM).
85 μl of EPS is added to the assay wells (or PSS to positive control wells) of 96 well polypropylene plates. The ATP solution is then completed by adding ^33P-ATP (to a final concentration of 50 μCi/ml).
The reaction is initiated by adding 10 μl ATP solution to each well. Plates are shaken from about 12 seconds and allowed to incubate at room temperature for 1 hours. 100 μl of trichloroacetic acid solution (12.5%) is added to stop the reaction and the plates are incubated at room temperature for at least 10 minutes. The assay plates are harvested onto a Millipore Multiscreen harvest Plate FC using an appropriate harvester and the harvest plates are washed with 1×PBS solution for about 10 seconds (continuous flow). Harvest plates are allowed to dry thoroughly and the bottoms of the plates are sealed. 20-50 μl of Microscint20 is added to each well, tops are sealed and plates are read using an appropriate scintillation counter.
A reaction buffer (pH 7.6) is prepared containing HEPES (20 mM), MgCl2 (10 mM), EDTA (0.05 mM), DTT (1 mM) and Triton X-100 (0.004%). IKK2EE-NEMO (0.7 μg/ml is used. GST-IKBα (0.5 μg/ml) is used as substrate. Adenosine 5′-triphosphate (1.5 μM) is used. Detection reagents used are mouse anti-P-IKBα (30 ng/ml), Eu anti-mouse (300 ng/ml) and Cy5 anti-GST (11.5 μg/ml). Reactions are stopped with EDTA (20 mM).
An enzyme solution (ES) is prepared by adding enzyme stock to an appropriate volume of buffer (enzyme concentration in the ES will be about 1.7 ng/ml). A detection mixture (DM) is prepared by adding ATP (final conc. 3.75 μM), mouse anti-P-IKBα (final conc. 75 ng/ml), GST-IKBα (final conc. 1.26 μg/ml), Eu anti-mouse in buffer (final conc. 750 ng/ml).
5 μl of compound (solvated in 10% DMSO) is added to assay wells (or 10% DMSO to control wells) of low binding reaction plates. […] ES is added to assay wells (or buffer to control wells) and the reaction is initiated by adding 10 μl DM to all wells. Plates are incubated at room temperature for 45 minutes. Stop mixture is prepared by adding EDTA (final conc. 70 mM) and Cy5 anti-GST (final conc. 40 μg/ml) to an appropriate volume of buffer. Stop mixture is added and plates are shaken for 20 seconds and incubated at room temperature for at least 3 hours (preferably in the dark). Plates are read on an Analyst HT using Multi-Method HTRF.

Row | Compound | IC50 [1] | melting point | IC50 [2] | IC50 [3]
1 | COc1ccccc1-n1c(=O)[nH]c2c(C(N)=O)nc(-c3cccc4[nH]cnc34)nc21 [Compound 99, 2-(1H-benzo[d]imidazol-4-yl)-9-(2-methoxyphenyl)-8-oxo-8,9-dihydro-7H-purine-6-carboxamide] | 0.1 to 5 µM | 312 °C | > 30 µM | –
2 | NC(=O)c1nc(-c2cccnc2)nc2c1NC(=O)CN2c1ccccc1 [Compound 36, 6-oxo-8-phenyl-2-(pyridin-3-yl)-5,6,7,8-tetrahydropteridine-4-carboxamide] | – | 294 to 296 °C | > 30 µM | > 30 µM

Compounds with a lower IC50 [2], results first:

Row | IC50 [1] | melting point | IC50 [2] | IC50 [3] | Compound
3 | – | 312 to 313 °C | 5.1 to 10 µM | > 30 µM | COc1ccccc1-n1c(=O)[nH]c2c(C(N)=O)nc(-c3cccc4[nH]ccc34)nc21 [Compound 10, 2-(1H-indol-4-yl)-9-(2-methoxyphenyl)-8-oxo-8,9-dihydro-7H-purine-6-carboxamide]
4 | – | 366 to 367 °C | 5.1 to 10 µM | > 30 µM | Cc1ccccc1-n1c(=O)[nH]c2c(C(N)=O)nc(-c3cccc(O)c3)nc21 [Compound 9, 2-(3-hydroxyphenyl)-8-oxo-9-o-tolyl-8,9-dihydro-7H-purine-6-carboxamide]
5 | – | 360 to 364 °C | 0.1 to 5 µM | > 30 µM | NC(=O)c1nc(-c2cccc(O)c2)nc2c1[nH]c(=O)n2-c1ccccc1Cl [Compound 14, 9-(2-chlorophenyl)-2-(3-hydroxyphenyl)-8-oxo-8,9-dihydro-7H-purine-6-carboxamide]
